One block for each compound: values may come before it.
Key:
xTMEM16A [1] = target: T1, xTMEM16A (Xenopus laevis, UniProt B5SVV6); assay: TEVC in axolotl oocytes, current evoked by uncaging IP3; assay type: cell-based
T1 sequence (B5SVV6 1-979): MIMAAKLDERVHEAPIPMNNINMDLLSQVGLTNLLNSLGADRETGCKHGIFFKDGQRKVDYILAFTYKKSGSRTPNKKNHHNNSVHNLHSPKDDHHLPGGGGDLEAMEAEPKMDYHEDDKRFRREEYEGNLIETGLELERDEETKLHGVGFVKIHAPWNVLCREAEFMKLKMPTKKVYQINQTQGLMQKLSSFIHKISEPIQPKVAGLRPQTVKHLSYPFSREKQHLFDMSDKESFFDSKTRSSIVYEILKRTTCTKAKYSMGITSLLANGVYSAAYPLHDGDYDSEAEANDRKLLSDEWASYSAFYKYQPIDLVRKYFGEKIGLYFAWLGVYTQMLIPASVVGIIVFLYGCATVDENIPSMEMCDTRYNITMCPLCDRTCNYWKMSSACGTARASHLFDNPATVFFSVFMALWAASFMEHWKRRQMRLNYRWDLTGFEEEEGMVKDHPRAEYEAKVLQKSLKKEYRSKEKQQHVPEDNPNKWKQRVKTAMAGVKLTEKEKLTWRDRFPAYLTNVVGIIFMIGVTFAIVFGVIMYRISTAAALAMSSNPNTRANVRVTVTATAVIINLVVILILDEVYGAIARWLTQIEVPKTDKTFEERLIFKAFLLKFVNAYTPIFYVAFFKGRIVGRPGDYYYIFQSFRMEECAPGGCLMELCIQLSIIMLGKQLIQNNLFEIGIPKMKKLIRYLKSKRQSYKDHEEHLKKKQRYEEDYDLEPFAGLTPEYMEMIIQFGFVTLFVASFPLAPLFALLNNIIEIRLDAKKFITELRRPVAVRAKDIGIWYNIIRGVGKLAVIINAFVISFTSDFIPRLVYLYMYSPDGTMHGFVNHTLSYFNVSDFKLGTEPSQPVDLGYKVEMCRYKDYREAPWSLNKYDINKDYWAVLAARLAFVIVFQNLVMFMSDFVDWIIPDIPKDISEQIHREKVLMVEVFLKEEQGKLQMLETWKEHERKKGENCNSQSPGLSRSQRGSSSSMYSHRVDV

xTMEM16A [2] = target: T1, xTMEM16A; assay: as above; assay type: cell-based; details: 7.5 µM; otherwise same; printed as almost 50%

- inhibition at 1 µM (xTMEM16A [1]; read-out: % inhibition at 1 μM): ~80%
SMILES: COc1ccccc1C=NNC(=O)COc1ccc(Cl)cc1C [Ani9, 2-(4-chloro-2-methylphenoxy)-N-[(2-methoxyphenyl)methylideneamino]-acetamide]

SMILES: CC(C)(C)C1CCc2c(sc(NC(=O)c3ccco3)c2C(=O)O)C1 (stereo not shown) [CaCCinh-A01, 6-(1,1-dimethylethyl)-2-[(2-furanylcarbonyl)amino]-4,5,6,7-tetrahydrobenzo[b]thiophene-3-carboxylic acid]
- % inhibition (xTMEM16A [2]): whereas T16Ainh-A01 and CaCCinh-A01 were much less effective

- inhibition at 7.5 µM (xTMEM16A [1]; read-out: % inhibition at 7.5 μM): ~50%
SMILES: O=S(=O)(O)c1cc(N=C=S)ccc1/C=C/c1ccc(N=C=S)cc1S(=O)(=O)O [DIDS]

- inhibition at 10 µM (xTMEM16A [1]; read-out: % inhibition at 10 μM): 72 ± 3%
SMILES: COc1cc(Nc2ccc([N+](=O)[O-])cc2C(=O)O)cc2ccccc12 [MONNA, N-((4-methoxy)-2-naphthyl)-5-nitroanthranilic acid]

Reference: article PMC6122928 (The Journal of General Physiology, 2018)
